Data: US20100105722A1, “Substituted 4,5,6,7-tetrahydrothienopyridines as KCNQ2/3 Modulators” (GRUENENTHAL GmbH, priority 2008, published 2010)
Where two headings read alike, the source gives them in different places.

Biological target: T1, hKCNQ2/3 (Homo sapiens, UniProt O43525+O43526)
T1 construct: expressed in transfected cells; host or cells: CHO-K1
Assay: Fluorescence assay using a voltage sensitive dye (fluorimetry)
Assay type: cell-based
Conditions: for Fluorimetry % Efficacy @ 10 μM (reti-gabine = 100%) / Emax at 10 µM: relative to retigabine = 100%
Description: Fluorescence Assay using a Voltage Sensitive Dye
Human CHO-K1 cells expressing KCNQ2/3 channels are cultivated adherently at 37° C., 5% CO2 and 95% humidity in cell culture bottles (e.g. 80 cm^2 TC flasks, Nunc) with DMEM-high glucose (Sigma Aldrich, D7777) including 10% FCS (PAN Biotech, e.g. 3302-P270521) or alternatively MEM Alpha Medium (1×, liquid, Invitrogen, #22571), 10% fetal calf serum (FCS) (Invitrogen, #10270-106, heat-inactivated) and the necessary selection antibiotics.
Before being sown out for the measurements, the cells are washed with a 1×DPBS buffer without Ca^2+/Mg^2+ (e.g. Invitrogen, #14190-094) and detached from the bottom of the culture vessel by means of Accutase (PAA Laboratories, #L11-007) (incubation with Accutase for 15 min at 37° C.). The cell count then present is determined using a CASY™ cell counter (TCC model, Schärfe System) in order subsequently to apply, depending on the density optimization for the individual cell line, 20,000-30,000 cells/well/100 μl of the described nutrient medium to 96-well measuring plates of the Corning™ CellBIND™ type (Flat Clear Bottom Black Polystyrene Microplates, #3340). Incubation is then carried out for one hour at room temperature, without gassing or adjusting the humidity, followed by incubation for 24 hours at 37° C., 5% CO2 and 95% humidity.
The voltage-sensitive fluorescent dye from the Membrane Potential Assay Kit (Red™ Bulk format part R8123 for FLIPR, MDS Analytical Technologies™) is prepared by dissolving the contents of a vessel Membrane Potential Assay Kit Red Component A in 200 ml of extracellular buffer (ES buffer, 120 mM NaCl, 1 mM KCl, 10 mM HEPES, 2 mM CaCl2, 2 mM MgCl2, 10 mM glucose; pH 7.4). After removal of the nutrient medium, the cells are washed with 200 μl of ES buffer, then covered with a layer of 100 μl of the dye solution prepared above and incubated for 45 min at room temperature with the exclusion of light.
The fluorescence measurements are carried out with a BMG Labtech FLUOstar™, BMG Labtech NOVOstar™ or BMG Labtech POLARstar™ instrument (525 nm excitation, 560 nm emission, Bottom Read mode). After incubation of the dye, 50 μl of the test substances in the desired concentrations, or 50 μl of ES buffer for control purposes, are introduced into separate cavities of the measuring plate and incubated for 30 min at room temperature while being shielded from light. The fluorescence intensity of the dye is then measured for 5 min and the fluorescence value F1 of each well is thus determined at a given, constant time. 15 μl of a […] KCl solution ([…]) are then added to each well. The change in fluorescence is subsequently measured until all the relevant measured values have been obtained (mainly 5-30 min). At a given time after KCl application, a fluorescence value F2 is determined, in this case at the time of the fluorescence peak.
For calculation, the fluorescence intensity F2 is compared with the fluorescence intensity F1, and the agonistic activity of the target compound on the potassium channel is determined therefrom. F2 and F1 are calculated as follows: […]
In order to determine whether a substance has agonistic activity, […]
for example, can be compared with […]
is determined by adding to the reaction batch only the buffer solution instead of the test substance, determining the value F1K of the fluorescence intensity, adding the potassium ions as described above, and measuring a value F2K of the fluorescence intensity. F2K and F1K are then calculated as follows: […]
A substance has an agonistic activity on the potassium channel when […]
Independently of the comparison of […]
it is possible to conclude that a target compound has agonistic activity if an increase in […]
is to be observed as the dosage of the target compound increases.
Calculations of EC50 and IC50 values are carried out with the aid of ‘Prism v4.0’ software (GraphPad Software™).

[1] = 10 μM, CHO-K1 cells expressing KCNQ2/3, Table 3
[2] = CHO-K1 cells expressing KCNQ2/3, Table 3
[3] = CHO-K1, 10 μM, CHO-K1 cells expressing KCNQ2/3, Table 3, read-out: Fluorimetry % Efficacy @ 10 μM (reti-gabine = 100%)

| Structure (SMILES) | Emax at 10 µM [3] [%] | EC50 [2] [nM] | also measured |
| --- | --- | --- | --- |
| O=C(NCc1cccc(C(F)(F)F)c1)C1CCCCC1C(=O)N1CCc2sccc2C1c1ccccc1 (mixture of isomers) [compound 31] | – | – | Fluorimetry % Efficacy @ 10 μM (reti-gabine = 100%) [1]: −44%; IC50 [2]: 250 nM |
| O=C(CCC(=O)N1CCn2cccc2C1c1cccs1)NCc1cccc(C(F)(F)F)c1 (stereo not shown) [Example No. 76 of WO 2008/046582, reference compound] | – | – | Emax at 10 µM (10 μM, comparison experiments table, read-out: Fluorimetry % Efficacy @ 10 μM (retigabine = 100%)): 113%; EC50 (comparison experiments table): 3290 nM |
| Cc1cccc(C2c3ccsc3CCN2C(=O)CCC(=O)NCc2cccc(C(F)(F)F)c2)c1 (stereo not shown) [compound 4] | 102 | 456 | – |
| Cc1ccc(C2c3ccsc3CCN2C(=O)CCC(=O)NCc2cccc(C(F)(F)F)c2)cc1 (stereo not shown) [compound 5] | 61 | > 1660 | – |
| O=C(CCC(=O)N1CCc2sccc2C1c1ccccc1F)NCc1cccc(C(F)(F)F)c1 (stereo not shown) [compound 6] | 133 | 284 | – |
| O=C(CCC(=O)N1CCc2sccc2C1c1ccc(F)cc1)NCc1cccc(C(F)(F)F)c1 (stereo not shown) [compound 7] | 132 | 348 | – |
| O=C(CCC(=O)N1CCc2ccsc2C1c1ccccc1)NCc1cccc(C(F)(F)F)c1 (stereo not shown) [compound 9] | 110 | 407 | – |
| Cc1cc2c(s1)CCN(C(=O)CCC(=O)NCc1cccc(C(F)(F)F)c1)C2c1ccccc1 (stereo not shown) [compound 10] | 121 | 382 | – |
| O=C(CCC(=O)N1CCc2sccc2C1c1ccccc1)NCc1ccc(C(F)(F)F)cc1 (stereo not shown) [compound 13] | 51 | 375 | – |
| COc1ccccc1CNC(=O)CCC(=O)N1CCc2sccc2C1c1ccccc1 (stereo not shown) [compound 14] | -54 | – | – |
| COc1cccc(CNC(=O)CCC(=O)N2CCc3sccc3C2c2ccccc2)c1 (stereo not shown) [compound 15] | -46 | – | – |
| COc1ccc(CNC(=O)CCC(=O)N2CCc3sccc3C2c2ccccc2)cc1 (stereo not shown) [compound 16] | 21 | – | – |
| O=C(CCC(=O)N1CCc2sccc2C1c1ccccc1)NCc1cccc(F)c1 (stereo not shown) [compound 18] | 11 | 2180 | – |
| Cc1cccc(CNC(=O)CCC(=O)N2CCc3sccc3C2c2ccccc2)c1 (stereo not shown) [compound 19] | -45 | – | – |
| Cc1csc2c1C(c1ccccc1)N(C(=O)CCC(=O)NCc1cccc(C(F)(F)F)c1)CC2 (stereo not shown) [compound 20] | 54 | 722 | – |
| O=C(CCC(=O)N1CCc2sccc2C1C1CCCCC1)NCc1cccc(C(F)(F)F)c1 (stereo not shown) [compound 21] | 148 | 324 | – |
| CC(C)C1c2ccsc2CCN1C(=O)CCC(=O)NCc1cccc(C(F)(F)F)c1 (stereo not shown) [compound 22] | 139 | 1220 | – |
| CCCCC1c2ccsc2CCN1C(=O)CCC(=O)NCc1cccc(C(F)(F)F)c1 (stereo not shown) [compound 23] | 146 | 947 | – |
| O=C(CCC(=O)N1CCc2sccc2C1c1ccccc1)NCCc1ccccc1 (stereo not shown) [compound 25] | 12 | – | – |
| Cc1ccccc1CNC(=O)CCC(=O)N1CCc2sccc2C1c1ccccc1 (stereo not shown) [compound 26] | -20 | – | – |
| O=C(NCc1cccc(C(F)(F)F)c1)C(CC(=O)N1CCc2sccc2C1c1ccccc1)c1ccccc1 (stereo not shown) [compound 27] | 119 | > 404 | – |
| C[C@H](CC(=O)N1CCc2sccc2C1c1ccccc1)C(=O)NCc1cccc(C(F)(F)F)c1 (stereo partly shown) [compound 28] | 106 | 540 | – |
| O=C(CC(C(=O)N1CCc2sccc2C1c1ccccc1)c1ccccc1)NCc1cccc(C(F)(F)F)c1 (stereo not shown) [compound 29] | -45 | – | IC50 [2]: 133 nM |
| O=C(CC(C(=O)N1CCc2sccc2C1)c1ccccc1)NCc1cccc(C(F)(F)F)c1 (stereo not shown) [compound 30] | -101 | – | IC50 [2]: 212 nM |
| O=C(NCc1cccc(C(F)(F)F)c1)C1CCCCC1C(=O)N1CCc2sccc2C1c1ccccc1 (stereo not shown) [compound 32] | – | 414 | Fluorimetry % Efficacy @ 10 μM (reti-gabine = 100%) [1]: 110% |
| C[C@H](CC(=O)NCc1cccc(C(F)(F)F)c1)C(=O)N1CCc2sccc2C1c1ccccc1 (stereo partly shown) [compound 34] | 179 | 628 | – |

| Structure (SMILES) | Emax at 10 µM [3] [%] | EC50 [2] [nM] | also measured |
| --- | --- | --- | --- |
| O=C(CCC(=O)N1CCc2sccc2C1c1ccccc1)NCc1cccc(C(F)(F)F)c1 (stereo not shown) [compound 35] | – | 572 | – |
| O=C(CCC(=O)N1CCc2sccc2C1c1ccccc1)NCc1cccc(C(F)(F)F)c1 (stereo not shown) [compound 36] | – | 707 | – |
| O=C(CCC(=O)N1CCc2sccc2C1c1ccccc1)NCc1cccc(C(F)(F)F)c1F (stereo not shown) [compound 40] | – | 156 | – |
| O=C(CCC(=O)N1CCc2sccc2C1c1ccccc1)NCc1cc(F)cc(C(F)(F)F)c1 (stereo not shown) [compound 41] | – | 261 | – |
| Cc1scc2c1CCN(C(=O)CCC(=O)NCc1cccc(C(F)(F)F)c1)C2c1ccccc1 (stereo not shown) [compound 45] | 39 | 311 | – |
| COc1ccc(NC(=O)CCC(=O)N2CCc3sccc3C2c2ccc(C)cc2)cc1 (stereo not shown) [compound 46] | 35 | – | – |
| Cc1ccc(C2c3ccsc3CCN2C(=O)CCC(=O)Nc2ccc3cnn(C)c3c2)cc1 (stereo not shown) [compound 47] | 37 | – | – |
| Cc1ccc(C2c3ccsc3CCN2C(=O)CCC(=O)NCc2ccccc2)cc1 (stereo not shown) [compound 48] | -15 | – | – |
| Cc1ccc(C2c3ccsc3CCN2C(=O)CCC(=O)NCCc2ccccc2)cc1 (stereo not shown) [compound 49] | 38 | – | – |
| Cc1ccc(C2c3ccsc3CCN2C(=O)CCC(=O)NCc2ccncc2)cc1 (stereo not shown) [compound 50] | 10 | – | – |
| Cc1ccc(C2c3ccsc3CCN2C(=O)CCC(=O)NCCCc2ccccc2)cc1 (stereo not shown) [compound 51] | 38 | – | – |
| Cc1cccc(C2c3ccsc3CCN2C(=O)CCC(=O)Nc2cccc3nsnc23)c1 (stereo not shown) [compound 52] | 15 | – | – |
| Cc1cccc(C2c3ccsc3CCN2C(=O)CCC(=O)Nc2ccc3cnn(C)c3c2)c1 (stereo not shown) [compound 53] | 28 | – | – |
| Cc1cccc(C2c3ccsc3CCN2C(=O)CCC(=O)NCc2ccccn2)c1 (stereo not shown) [compound 54] | 19 | – | – |
| O=C(CCC(=O)N1CCc2sccc2C1c1ccccc1)NCCC1CCCCC1 (stereo not shown) [compound 245] | – | 690 | – |
| O=C(CCC(=O)N1CCc2sccc2C1c1ccccc1)NCC1CCCCC1 (stereo not shown) [compound 247] | – | 1440 | – |
| Cc1ccc(CNC(=O)CCC(=O)N2CCc3sccc3C2c2ccccc2)cc1C(F)(F)F (stereo not shown) [compound 249] | – | 347 | – |
| O=C(CCC(=O)N1CCc2sccc2C1c1ccccc1)NCc1ccc(F)c(C(F)(F)F)c1 (stereo not shown) [compound 250] | – | 517 | – |
| CCc1ccccc1C1c2ccsc2CCN1C(=O)CCC(=O)NCc1cccc(C(F)(F)F)c1 (stereo not shown) [compound 251] | – | 131 | – |
| CC(C)c1ccccc1C1c2ccsc2CCN1C(=O)CCC(=O)NCc1cccc(C(F)(F)F)c1 (stereo not shown) [compound 252] | – | 1010 | – |
| Cc1ccsc1C1c2ccsc2CCN1C(=O)CCC(=O)NCc1cccc(C(F)(F)F)c1 (stereo not shown) [compound 254] | – | 211 | – |
| Cc1ccccc1C1c2ccsc2CCN1C(=O)CCC(=O)NCc1ccccc1C(F)(F)F (stereo not shown) [compound 256] | – | 90 | – |
| Cc1ccccc1C1c2ccsc2CCN1C(=O)CCC(=O)NCc1ccc(C(F)(F)F)cc1 (stereo not shown) [compound 257] | – | 547 | – |
| CCCCC1c2sccc2CCN1C(=O)CCC(=O)NCc1cccc(C(F)(F)F)c1 (stereo not shown) [compound 258] | – | 306 | – |
| O=C(CCC(=O)N1CCc2sccc2C1CCc1ccccc1)NCc1cccc(C(F)(F)F)c1 (stereo not shown) [compound 261] | – | 84 | – |
| Cc1cc(F)ccc1C1c2ccsc2CCN1C(=O)CCC(=O)NCc1cccc(C(F)(F)F)c1 (stereo not shown) [compound 262] | – | 166 | – |
